Results published in ChEMBL document CHEMBL1128169, “Thiourea analogues of resiniferatoxin as ligands for the vanilloid receptor” (Bioorg Med Chem Lett, 1995).

What follows are molecules tested against Transient receptor potential cation channel subfamily V member 1 (Homo sapiens, UniProt Q8NER1) (assay: Displacement of [3H]RTX binding from vanilloid receptor).
Transient receptor potential cation channel subfamily V member 1, sequence (Q8NER1 whole entry): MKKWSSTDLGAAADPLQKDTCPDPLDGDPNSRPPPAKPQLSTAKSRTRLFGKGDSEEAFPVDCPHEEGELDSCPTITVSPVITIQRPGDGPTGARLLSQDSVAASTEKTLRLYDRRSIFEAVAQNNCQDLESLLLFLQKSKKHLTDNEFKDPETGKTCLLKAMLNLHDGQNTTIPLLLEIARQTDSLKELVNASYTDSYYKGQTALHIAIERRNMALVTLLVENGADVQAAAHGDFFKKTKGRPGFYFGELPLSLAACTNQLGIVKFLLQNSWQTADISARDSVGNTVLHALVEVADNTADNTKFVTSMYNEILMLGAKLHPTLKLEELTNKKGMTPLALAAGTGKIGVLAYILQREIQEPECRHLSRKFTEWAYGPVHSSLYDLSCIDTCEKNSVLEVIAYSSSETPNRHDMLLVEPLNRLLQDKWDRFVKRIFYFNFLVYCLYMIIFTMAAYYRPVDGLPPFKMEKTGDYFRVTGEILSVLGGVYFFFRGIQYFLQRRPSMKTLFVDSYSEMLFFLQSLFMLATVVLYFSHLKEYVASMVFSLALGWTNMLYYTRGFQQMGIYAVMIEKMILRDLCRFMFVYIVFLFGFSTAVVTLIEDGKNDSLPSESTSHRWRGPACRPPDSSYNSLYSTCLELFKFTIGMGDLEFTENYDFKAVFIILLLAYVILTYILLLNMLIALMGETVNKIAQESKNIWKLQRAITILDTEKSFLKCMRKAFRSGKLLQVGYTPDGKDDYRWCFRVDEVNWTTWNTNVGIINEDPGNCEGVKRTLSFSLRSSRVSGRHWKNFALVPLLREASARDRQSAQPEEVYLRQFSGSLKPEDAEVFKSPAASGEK

Row | SMILES | Ki [nM]
1 | C=C(C)[C@]12C[C@@H](C)[C@@]34OC(Cc5ccccc5)(O[C@@H]1[C@@H]3C=C(CNC(=S)NCc1ccc(O)c(OC)c1)C[C@]1(O)C(=O)C(C)=C[C@@H]41)O2 | 149
2 | C=C(C)[C@]12C[C@@H](C)[C@@]34OC(Cc5ccccc5)(O[C@@H]1[C@@H]3C=C(C/N=C(\S)Nc1ccc(O)c(OC)c1)C[C@]1(O)C(=O)C(C)=C[C@@H]41)O2 | 66.1
3 | C=C(C)[C@]12C[C@@H](C)[C@@]34O[C@](Cc5ccccc5)(O[C@@H]1[C@@H]3C=C(COC(=O)Cc1ccc(O)c(OC)c1)C[C@]1(O)C(=O)C(C)=CC41)O2 (single isomer, unassigned) [RESINIFERATOXIN] | 23.1
